Reference: PMC12689952 (Frontiers in Pharmacology, 2025)
Like-named read-outs stand apart in the source and are kept apart here.

What was measured:
hERG potassium channel = hERG potassium channel (Homo sapiens, UniProt Q12809); experiment: hERG inhibition, FluxOR potassium assay in hERG-expressing HEK293 cells
Description: Cardiotoxicity of GAL (1–15) was assessed in hERG-expressing HEK cells using the FluxOR™ potassium assay (Invitrogen) on a FLIPR TETRA system. Cells were preloaded with FluxOR™ dye, followed by incubation with GAL (1–15) in a 10-point half-log dose-response curve (max concentration: 50 µM). After a 30-min equilibration, the thallium stimulation buffer was injected to measure potassium flux kinetics. […] Data were analyzed using Genedata Screener software, with IC50 values determined via the Hill model ([Annang et al., 2021]; [Lee et al., 2019]).

rats [1] = tested on: rats; set-up: method as in Millón, 2014; conditions: 3 nmol intracerebroventricular; ref Millón, 2014; cited from earlier work
rats [2] = tested on: rats; set-up: method as in Millón et al., 2019b; conditions: voluntary intake model; ref Millón et al., 2019b; cited from earlier work
Sprague Dawley rats [3] = experiment: Forced swimming test (FST) after intranasal administration; assay type: in vivo, rat; conditions: for Climbing / Immobility / Swimming: mean ± SEM
Description: (§1) Male Sprague Dawley rats (body weight 200–225 g) were obtained from Charles River (Barcelona, Spain) and maintained in a humidity-controlled and temperature-controlled (20 °C–22 °C) room. Rats were maintained during the alcohol protocol on a 12-h reversed light/dark cycle (lights off at 9 a.m.). All animal experimentation was conducted in accordance with the University of Málaga Guidelines for the Care and Use of Laboratory Animals (Ethic Code: 22/05/2017/066).
(§2) Animals were preacclimated to the procedure and handled daily for 3 days to reduce stress. Rats were administered under light anaesthesia with isoflurane (3%–4% for induction and 1.5%–2% for maintenance) for approximately 2–3 min, sufficient to prevent movement during intranasal administration. A single intranasal infusion of GAL (1–15) (TOCRIS, Bristol, United Kingdom, molecular weight = 1557 g/mol) was administered at doses of 37.5 μg, 75 μg, 150 μg, or 300 μg, equivalent to those used with other peptides ([Serova et al., 2013]; [Serova et al., 2019]). Doses were dissolved in 20 μL of distilled water, with 10 μL administered into each nostril using a disposable plastic-tipped pipette, without inserting deeply, 30 min or 1 h before behavioral testing, as described previously ([Serova et al., 2013]; [Serova et al., 2019]). Care was taken to avoid contact with the intranasal mucosa. After intranasal administration, the animal’s head was held back for approximately 15 s to prevent loss of solution from the nostrils. Animals returned to normal behavior within 1–2 min, and no subjects needed to be withdrawn due to intolerance.
Depressive behavior was assessed using the FST, as described previously ([Millón et al., 2014]; [Cantero-García et al., 2022b]). Briefly, two swimming sessions were conducted: a 15-min pretest followed 24 h later by a 5-min test. Animals were individually placed in a vertical glass cylinder of 20 cm diameter containing water (25 °C) to a height of 30 cm. Immobility, swimming and climbing behaviors were evaluated and recorded during the second 5-min test. Behavioral scoring was conducted by a blinded experimenter using coded videos to ensure objectivity.
Two experiments were conducted in the FST (Figure 1A). A dose-response curve of GAL (1–15) was performed in the first set of experiments. For this, groups of rats received GAL (1–15) intranasally 37.5 μg (n = 6), 75 μg (n = 6), 150 μg (n = 6) or 300 μg (n = 6) or distilled water (n = 12) 30 min before the test. The effects in the FST of GAL (1–15) intranasally at 1 h were studied in the second set of experiments. For this, groups of rats received GAL (1–15) intranasal 37.5 μg (n = 8), 75 μg (n = 8) or distilled water (n = 4–5) 1 h before the test. Animals were randomly assigned to treatment groups.

CYP3A4 = target: T1, CYP3A4 (Homo sapiens, UniProt P08684); experiment: Cytochrome P450 inhibition assay in human liver microsomes (testosterone substrate); assay type: in vitro ADME
T1 construct: Following the addition of human liver microsomes (HLM) and specific substrates; from tissue; host or cells: human liver microsomes
T1 sequence (P08684 whole entry): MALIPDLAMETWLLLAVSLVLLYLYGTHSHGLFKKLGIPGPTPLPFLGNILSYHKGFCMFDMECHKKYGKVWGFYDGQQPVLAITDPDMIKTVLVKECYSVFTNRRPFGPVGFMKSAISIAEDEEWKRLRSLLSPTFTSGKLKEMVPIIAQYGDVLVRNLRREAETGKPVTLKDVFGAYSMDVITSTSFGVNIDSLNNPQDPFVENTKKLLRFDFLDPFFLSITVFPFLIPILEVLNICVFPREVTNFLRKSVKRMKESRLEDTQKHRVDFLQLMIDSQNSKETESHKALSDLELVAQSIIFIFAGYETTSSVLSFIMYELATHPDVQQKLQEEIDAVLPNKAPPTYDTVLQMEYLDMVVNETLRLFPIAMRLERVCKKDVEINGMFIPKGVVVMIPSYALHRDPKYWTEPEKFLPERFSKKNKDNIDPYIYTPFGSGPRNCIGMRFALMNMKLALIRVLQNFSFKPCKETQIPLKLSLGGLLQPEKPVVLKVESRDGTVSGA
Description: (§3) The Cytochrome P450 (CYP450) inhibition assay was performed to assess GAL (1–15) using substrates specific for the CYP3A4, CYP2D6, and CYP2C9 isoforms. […] Following the addition of human liver microsomes (HLM) and specific substrates (testosterone for CYP3A4, dextromethorphan for CYP2D6, diclofenac for CYP2C9), reactions were incubated with shaking at 180 Hz (CYP3A4: 15 min; CYP2D6: 30 min; CYP2C9: 45 min). […] Reactions were quenched with acetonitrile, centrifuged, and analyzed using LC-MS/MS with a triple quadrupole mass spectrometer (AB SCIEX API4000) coupled to an Agilent 1290 HPLC system ([Fowler et al., 2022]). Data were processed using Genedata Screener software to calculate IC50 values.

CHO cells = conditions: 24 h
Description: The study followed OECD Test Guideline 487 for micronucleus assessment in rodent CHO cells (ECACC ref: 85050302). Cells were seeded at 2,000/well in 96-well plates and incubated at 37 °C with 5% CO2. GAL (1–15) (2.52 mM stock) was tested at concentrations ranging from 3.12 to 50 μM for 24 h in six replicates. […] After treatment, cytochalasin B was added for 28 h to block cytokinesis, followed by fixation and Hoechst staining. Imaging was performed using the Operetta CLS High-Content Analysis System, and analysis was conducted with Harmony software and the in-house NucleusFinder App (ImageJ-based). NucleusFinder identified valid micronuclei under stringent criteria, excluding irregular structures ([Durcik et al., 2023]). The cytokinesis-block proliferation index (CBPI) was calculated to assess cytostatic effects, ensuring cytostasis remained below 60% to avoid secondary micronuclei induction due to cytotoxicity. Cytostasis was calculated as follows: %cytostasis = 100–100 [(CBPIT-1)/(CBPIC-1)] where T is the test compound treatment culture, C is the vehicle control culture, and CBPI = {(No. mononucleate cells) + (2 × No. binucleate cells) + (3 × No. multinucleate cells)}/(total number of cells).

CYP2C9 = CYP2C9 (Homo sapiens, UniProt P11712); experiment: Cytochrome P450 inhibition assay in human liver microsomes (diclofenac substrate)
CYP2C9, sequence (P11712 whole entry): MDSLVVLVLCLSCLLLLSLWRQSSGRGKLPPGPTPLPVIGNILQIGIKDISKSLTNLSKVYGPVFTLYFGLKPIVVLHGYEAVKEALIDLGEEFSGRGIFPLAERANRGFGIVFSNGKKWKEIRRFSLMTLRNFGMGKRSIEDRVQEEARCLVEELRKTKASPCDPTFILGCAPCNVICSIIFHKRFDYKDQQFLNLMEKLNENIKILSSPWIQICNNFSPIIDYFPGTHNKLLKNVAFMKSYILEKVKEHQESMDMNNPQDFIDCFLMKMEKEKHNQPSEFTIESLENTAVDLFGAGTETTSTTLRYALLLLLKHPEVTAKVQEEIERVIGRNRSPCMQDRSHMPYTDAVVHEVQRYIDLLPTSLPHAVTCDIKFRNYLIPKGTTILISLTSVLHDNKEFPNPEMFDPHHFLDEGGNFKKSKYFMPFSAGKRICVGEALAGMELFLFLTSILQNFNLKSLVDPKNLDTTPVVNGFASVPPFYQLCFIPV
Description: as §3

rats [4] = tested on: rats; set-up: method as in Cantero-García et al., 2022a; conditions: 3 nmol intracerebroventricular; ref Cantero-García et al., 2022a; cited from earlier work
CYP2D6 = CYP2D6 (Homo sapiens, UniProt P10635); experiment: Cytochrome P450 inhibition assay in human liver microsomes (dextromethorphan substrate)
CYP2D6, sequence (P10635 whole entry): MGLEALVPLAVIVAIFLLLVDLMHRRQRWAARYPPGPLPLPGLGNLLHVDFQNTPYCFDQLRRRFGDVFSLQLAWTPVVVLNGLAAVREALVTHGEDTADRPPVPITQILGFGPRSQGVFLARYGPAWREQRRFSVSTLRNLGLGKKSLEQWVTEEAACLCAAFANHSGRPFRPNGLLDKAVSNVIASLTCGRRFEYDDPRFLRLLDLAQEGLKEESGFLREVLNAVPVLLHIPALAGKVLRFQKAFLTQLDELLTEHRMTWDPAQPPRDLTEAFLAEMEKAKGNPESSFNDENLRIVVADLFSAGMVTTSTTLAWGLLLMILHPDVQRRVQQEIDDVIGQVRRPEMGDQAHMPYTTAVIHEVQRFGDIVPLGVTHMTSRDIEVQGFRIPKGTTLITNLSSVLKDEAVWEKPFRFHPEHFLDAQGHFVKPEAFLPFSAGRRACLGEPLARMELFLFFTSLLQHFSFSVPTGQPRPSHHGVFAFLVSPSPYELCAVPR
Description: as §3

Sprague Dawley rats [5] = experiment: Operant alcohol self-administration test after intranasal administration; assay type: in vivo, rat; conditions: 75 μg intranasal, 1 h before test
Description: as §1, §2
Training and testing were conducted in standard operant chambers (Panlab, Barcelona, Spain). Each chamber (250 mm W × 250 mm D × 250 mm H) was equipped with a drinking reservoir positioned 4 cm above the grid floor in the center of the front panel of the chamber, and two retractable levers were located 3 cm to right an left of the dinking receptacle. Each reservoir was calibrated to dispense 0.1 mL when the fixed ratio of lever presses was obtained. Chambers were connected to a computer running Packwin Sofware (2.0, Panlab, Barcelona, Spain).
Alcohol consumption was assessed using the previous self-administration test ([Cantero-García et al., 2022a]; [Cantero-García et al., 2022b]; [Lebourgeois et al., 2018]) (Figure 1B). Briefly, rats were exposed to intermittent consumption of 0.2% saccharin and 10% alcohol for 3 weeks. After that, rats were placed on a water restriction schedule for 2–4 days to facilitate training in lever pressing. […]

[6] = 37.5 μg intranasal, 1 h before test
[7] = 75 μg intranasal, 1 h before test, p < 0.05 vs control
[8] = 150 μg intranasal, 30 min before test, p < 0.05
[9] = 300 μg intranasal, 30 min before test, p < 0.05

hERG potassium channel, sequence (Q12809 whole entry): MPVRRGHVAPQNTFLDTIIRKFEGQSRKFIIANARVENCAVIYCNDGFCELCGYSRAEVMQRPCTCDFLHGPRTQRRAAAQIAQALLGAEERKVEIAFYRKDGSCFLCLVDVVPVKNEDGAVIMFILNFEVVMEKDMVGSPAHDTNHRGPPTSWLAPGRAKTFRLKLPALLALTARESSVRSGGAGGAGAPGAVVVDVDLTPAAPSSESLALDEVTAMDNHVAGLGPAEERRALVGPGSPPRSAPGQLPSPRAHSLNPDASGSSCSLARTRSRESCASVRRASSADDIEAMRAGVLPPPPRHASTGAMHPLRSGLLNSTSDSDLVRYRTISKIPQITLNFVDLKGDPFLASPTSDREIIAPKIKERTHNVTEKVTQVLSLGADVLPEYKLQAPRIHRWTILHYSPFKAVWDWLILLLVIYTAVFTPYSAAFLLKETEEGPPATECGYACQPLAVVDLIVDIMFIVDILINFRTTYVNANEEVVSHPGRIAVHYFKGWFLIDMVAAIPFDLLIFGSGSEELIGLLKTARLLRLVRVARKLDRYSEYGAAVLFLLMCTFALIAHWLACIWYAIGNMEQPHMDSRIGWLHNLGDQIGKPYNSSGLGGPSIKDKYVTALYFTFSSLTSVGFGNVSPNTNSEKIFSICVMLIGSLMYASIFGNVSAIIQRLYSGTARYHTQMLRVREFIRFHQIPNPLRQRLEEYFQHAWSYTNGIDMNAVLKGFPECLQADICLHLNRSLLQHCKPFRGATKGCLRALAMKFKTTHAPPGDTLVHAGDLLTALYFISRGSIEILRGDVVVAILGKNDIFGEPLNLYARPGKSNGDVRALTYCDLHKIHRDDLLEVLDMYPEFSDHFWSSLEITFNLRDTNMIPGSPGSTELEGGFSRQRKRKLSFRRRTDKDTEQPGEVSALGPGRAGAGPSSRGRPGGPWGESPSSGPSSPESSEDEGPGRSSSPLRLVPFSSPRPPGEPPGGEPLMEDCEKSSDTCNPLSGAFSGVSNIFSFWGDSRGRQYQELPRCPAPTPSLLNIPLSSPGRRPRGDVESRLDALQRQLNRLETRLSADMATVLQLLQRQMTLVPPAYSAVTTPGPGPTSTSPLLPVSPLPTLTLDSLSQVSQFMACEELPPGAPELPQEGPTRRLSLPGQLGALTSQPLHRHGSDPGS

CC(C)C[C@H](NC(=O)[C@H](CC(C)C)NC(=O)[C@H](Cc1ccc(O)cc1)NC(=O)CNC(=O)[C@H](C)NC(=O)[C@H](CO)NC(=O)[C@H](CC(N)=O)NC(=O)[C@H](CC(C)C)NC(=O)[C@@H](NC(=O)[C@H](Cc1c[nH]c2ccccc12)NC(=O)CN)[C@@H](C)O)C(=O)NCC(=O)N1CCC[C@H]1C(=O)N[C@@H](Cc1cnc[nH]1)C(=O)N[C@@H](C)C(=O)O [GAL (1–15), Galanin (1–15)]
IC50 (hERG potassium channel; Cardiotoxicity classification from hERG IC50, FluxOR potassium assay, HEK293-hERG): > 10 µM | IC50 (hERG potassium channel; hERG IC50, HEK293 cells stably expressing hERG, FluxOR potassium assay, n = 3): 20.9 µM | Decrease in climbing behavior in FST (rats [1]): 46% | Increase in immobility in FST (rats [1]): 44% | Decrease in alcohol preference and consumption (rats [2]): 90% | Behavioral effects in the FST (Sprague Dawley rats [3]; 37.5 μg intranasal, 30 min before test): did not produce significant behavioral effects | Immobility, swimming, or climbing behaviors in FST vs control (Sprague Dawley rats [3]; [6]): no significant alterations | Climbing (Sprague Dawley rats [3]; [6]): 109.6 ± 16.26 s | Immobility (Sprague Dawley rats [3]; [6]): 59.10 ± 23.04 s | Swimming (Sprague Dawley rats [3]; [6]): 97.75 ± 16.01 s | Immobility time in FST vs control (Sprague Dawley rats [3]; 75 μg intranasal, 30 min before test, p < 0.001): significant increase in immobility time | Swimming time in FST vs control (Sprague Dawley rats [3]; 75 μg intranasal, 30 min before test, p < 0.01): significantly decreased swimming time | Swimming (Sprague Dawley rats [3]; 75 μg intranasal, 1 h before test): 104.9 ± 15.86 s | Climbing (Sprague Dawley rats [3]; [7]): 62.96 ± 6.47 s | Immobility (Sprague Dawley rats [3]; [7]): 98.57 ± 18.74 s | Immobility time in FST vs control (Sprague Dawley rats [3]; 75 μg intranasal, 1 h before test, p < 0.05): increasing immobility time | Climbing time in FST vs control (Sprague Dawley rats [3]; 75 μg intranasal, 1 h before test, p ≤ 0.05): reducing climbing time | Immobility in FST vs control (Sprague Dawley rats [3]; [8]): significant increase in immobility | Swimming time in FST vs control (Sprague Dawley rats [3]; [8]): reduction in swimming time | Immobility in FST vs control (Sprague Dawley rats [3]; [9]): significant increase in immobility | Swimming time in FST vs control (Sprague Dawley rats [3]; [9]): reduction in swimming time | Climbing time in FST (Sprague Dawley rats [3]; any of the tested doses (37.5-300 μg) intranasal, 30 min before test): No effects were observed | CYP3A4 inhibitory potency class (CYP3A4): weak (weak inhibitors (IC50 > 10 μM)) | IC50 at 15 min (CYP3A4; pH 7.4, testosterone substrate, N = 3, read-out: CYP3A4 IC50 [lower and upper 95%]): > 23 µM | IC50 (CYP3A4; testosterone substrate, N = 3, read-out: CYP3A4 IC50 [lower and upper 95%]): > 26 µM | % Cytostasis (CHO cells; 3.125 µM): 0% | % MN (CHO cells; 3.125 µM): 8.39% | No. binucleate cells (CHO cells; 3.125 µM): 3,324 | No. of binucleated cells with MN (CHO cells; 3.125 µM): 278 | % Cytostasis (CHO cells; 6.25 µM): 0% | % MN (CHO cells; 6.25 µM): 8.28% | No. binucleate cells (CHO cells; 6.25 µM): 3,210 | No. of binucleated cells with MN (CHO cells; 6.25 µM): 265 | % Cytostasis (CHO cells; 12.5 µM): 0% | % MN (CHO cells; 12.5 µM): 8.53% | No. binucleate cells (CHO cells; 12.5 µM): 3,209 | No. of binucleated cells with MN (CHO cells; 12.5 µM): 273 | % Cytostasis (CHO cells; 25 µM): 0% | % MN (CHO cells; 25 µM): 8.70% | No. binucleate cells (CHO cells; 25 µM): 3,135 | No. of binucleated cells with MN (CHO cells; 25 µM): 272 | % Cytostasis (CHO cells; 50 µM): 0.1% | % MN (CHO cells; 50 µM): 7.94% | No. binucleate cells (CHO cells; 50 µM): 3,108 | No. of binucleated cells with MN (CHO cells; 50 µM): 246 | Micronucleus formation (CHO cells; any tested concentration, highest 50 μM): did not induce micronucleus formation | IC50 (CYP2C9): > 26 µM | CYP2C9 inhibitory potency class (CYP2C9; human liver microsomes): weak (weak inhibitors (IC50 > 10 μM)) | IC50 at 45 min (CYP2C9; human, microsomes, pH 7.4): > 23 µM | Number of alcohol reinforcements (rats [4]): significantly reduced | IC50 (CYP2D6): > 26 µM | CYP2D6 inhibitory potency class (CYP2D6; human liver microsomes): weak (weak inhibitors (IC50 > 10 μM)) | IC50 at 30 min (CYP2D6; human, microsomes, pH 7.4): > 23 µM | Total number of inactive lever presses vs control (Sprague Dawley rats [5]): did not significantly differ | Active lever presses vs control (Sprague Dawley rats [5]; 30-min session, p < 0.01): significantly reduced | Number of alcohol reinforcements vs control (Sprague Dawley rats [5]; 30-min session, p < 0.01): marked decrease | Inactive lever presses (Sprague Dawley rats [5]; mean ± SEM): 0.2 ± 0.1
